Where a SMILES comes first, the peptide text is derived from it. The star is where a group is joined. Cbz = O=C(OCc1ccccc1)*
Key:
[1] = molecular target: 3CLpro (Severe acute respiratory syndrome coronavirus 2, UniProt P0DTD1); experiment: 3CLpro FRET assay; format: biochemical, SARS-CoV-2
[2] = tested on: Calu-3, T84 and Vero E6 cells; experiment: Viability of uninfected cell lines (MTT assay); format: cell-based, human; african green monkey; settings: cobicistat 5-10 μM
Description: (§1) D) Uninfected cell lines of lung (Calu-3), gut (T84) and kidney (Vero E6) origin were left untreated or treated with serial dilutions of cobicistat. Forty-eight hours post-treatment cellular viability was measured by MTT assay. Data, expressed as mean±SD of three independent experiments, were normalized to the untreated control and CC50 values were calculated by nonlinear regression.
(§2) Cell viability was evaluated by (3-[4,5-dimethylthiazol-2-yl]-2,5 diphenyl tetrazolium bromide) (MTT) assay and by crystal violet staining as previously described (Shytaj et al. 2020; Feoktistova, Geserick, and Leverkus 2016). Briefly, the MTT assay was conducted using the CellTiter 96® Non-Radioactive Cell Proliferation Assay (MTT) (Promega; Madison, Wis., USA). Cells were plated in a 96-well plate at a concentration of 3×10^6 cells/mL in 100 μl of medium. The MTT solution (15 μl) was added to each well and, after 2-4 h, the reaction was stopped by the addition of 100 μl of 10% SDS. Absorbance values were acquired using an Infinite 200 PRO (Tecan, Männedorf, Switzerland) multimode plate reader at 570 nm wavelength.
(§3) Data normality assumptions were tested by D'Agostino & Pearson normality test (for >3). […] Synergy scores were calculated using the SynergyFinder web-tool (Ianevski et al. 2020) using the Zero Interaction Potency (ZIP) model (Yadav et al. 2015).

[3] = Viability of uninfected cell lines (MTT assay); format: cell-based, human; african green monkey; settings: human (Calu-3, T84); African green monkey (Vero E6); uninfected Calu-3, T84, Vero E6; 48 h; MTT; read-out: half cytotoxic concentration (CC50) range
Description: as §1, §2, §3

[4] = molecular target: HIV-1 protease (Human immunodeficiency virus type 1 group M subtype B, UniProt P04585); settings: read-out: EC50 against the HIV-1 protease; selleckchem product page; cited from earlier work
[5] = molecular target: SARS-CoV-2 S-protein (Severe acute respiratory syndrome coronavirus 2, UniProt P0DTC2); experiment: Syncytia formation assay in Vero E6 cells transfected with the S-protein; format: cell-based
[6] = mice, 50 mg/Kg; cited from earlier work
[7] = humans, standard dosing 150 mg/day; cited from earlier work
[8] = tested on: SARS-CoV-2; format: cell-based; settings: cobicistat 5-10 μM; MTT and crystal violet; Calu-3, T84, Vero E6
[9] = tested on: SARS-CoV-2; experiment: Inhibition of SARS-CoV-2 replication in cell lines (viral RNA by qPCR); format: cell-based

Row | Compound | effect on catalytic activity of 3CLpro [1] | tolerability by uninfected cells [2] | CC50 at 48 h [3] | EC50 [4] | concentration range with effect in syncytia assay [5] | syncytia formation ([5]; 24 h post transfection) | plasma levels compared with in vitro IC50 and CC50 [6] | maximum plasma concentrations [7] | viability of infected cells [8] | viral RNA release in supernatant ([9]; Calu-3, Vero E6, T84, MOI 0.05 and 0.5, treated 2 h post-infection) | virus RNA amounts by qPCR, intracellular and supernatant ([9]; Calu-3 cells, time course, low micromolar concentrations) | IC50 ([9]; Severe acute respiratory syndrome coronavirus 2, 48 h, read-out: range of IC50 concentrations)
1 | CC(C)C[C@@H](C=O)NC(=O)[C@H](CC(C)C)NC(=O)[C@H](CC(C)C)NC(=O)OCc1ccccc1 [MG-132] (Cbz-Leu-Leu-Leu-aldehyde) | potently reduced the catalytic activity | – | – | – | – | – | – | – | – | – | – | –
2 | CC(C)c1nc(CN(C)C(=O)N[C@@H](CCN2CCOCC2)C(=O)N[C@H](CC[C@H](Cc2ccccc2)NC(=O)OCc2cncs2)Cc2ccccc2)cs1 [Cobicistat, 1,3-thiazol-5-ylmethyl [(2R,5R)-5-{[(2S)-2-({[(2-isopropyl-1,3-thiazol-4-yl)methyl](methyl)carbamoyl}amino)-4-(morpholin-4-yl)butanoyl]amino}-1,6-diphenylhexan-2-yl]carbamate] | inactive | well tolerated | 38.7 to 53 µM | > 30 µM | 5 to 10 µM | decreased syncytia formation | clearly above all IC50 values calculated in our experiments, while remaining below the CC50 concentrations | ≈ 1 μM | partially rescue viability of infected cells | dose dependent effect in decreasing viral RNA release | dose dependent inhibitory effect | 0.58 to 8.76 µM

Source: US20230107186A1, “COBICISTAT FOR PREVENTION AND/OR TREATMENT OF CORONAVIRUS INFECTIONS” (priority 2020, published 2023)
